Reference: BigSolDB 2.1

COc1cc(C=O)ccc1O
solubility (mole fraction)
Details	293.15 K	298.15 K	303.15 K	308.15 K	313.15 K	318.15 K	323.15 K
in ethanol	0.0713	0.0779	0.0841	0.0926	0.105	0.118	0.141
in water	0.00116	0.00141	0.00179	0.00202	0.00234	0.00267	0.00298
